Laboratory results taken from patent US20040076683A1, “Stealth lipid nanocapsules, methods for the preparation thereof, and use thereof as a carrier for active principle(s)” (ETHYPHARM, priority 2002, published 2004).

Test: Solubility of paclitaxel and docetaxel in triglycerides
Type: physicochemical
Conditions: dissolved at 75 °C, no recrystallization at room temperature
Protocol: A solution of docetaxel or paclitaxel in triglycerides, which will constitute the inner core of the lipid nanocapsules, is prepared by dissolving the drug into the triglyceride at 75° C. The amount of drug is adjusted in order to obtain solutions that will not recrystallize upon cooling to room temperature.

[1] = in Labrafac CC (C8 content 56.7%)
[2] = in Miglyol 810 N (C8 content 70.4%)

Row | SMILES | Solubility (% w/w) [1] | Solubility (% w/w) [2] | Solubility (% w/w) (in Tricaprylin (C8 >99%))
1 | CC(=O)O[C@H]1C(=O)[C@@]2(C)[C@H]([C@H](OC(=O)c3ccccc3)[C@]3(O)C[C@H](OC(=O)[C@H](O)[C@@H](NC(=O)c4ccccc4)c4ccccc4)C(C)=C1C3(C)C)[C@]1(OC(C)=O)CO[C@@H]1C[C@@H]2O [Paclitaxel, paclitaxel] | 1.6 % w/w | 2.7 % w/w | 6 % w/w
2 | CC(=O)O[C@@]12CO[C@@H]1C[C@H](O)[C@@]1(C)C(=O)[C@H](O)C3=C(C)[C@@H](OC(=O)[C@H](O)[C@@H](NC(=O)OC(C)(C)C)c4ccccc4)C[C@@](O)([C@@H](OC(=O)c4ccccc4)[C@H]21)C3(C)C [Docetaxel, docetaxel] | 2 % w/w | 3.9 % w/w | 7 % w/w
